Consider two compounds from patent US5441962A, “Method for treating hyperlipemia” (priority 1992, dated 1995).

Each structure is given as a SMILES string. Structures can show the parent of a compound that is named as a salt.

One data set has as its system Wall of Aorta. Kind of data set: Proportion of components constituting the wall of aorta (histochemical assay, fifth intercostal pars of thoracic aorta). Type of data set: in vivo, Male Japanese white rabbits. The text has this: (§1) In this example, the effects of the present compound on the wall of a blood vessel, a serum lipid and a blood glucose level were studied on the experimental sclerosis rabbits from the determination of the arterial sclerosis action, the assay of the components constituting the wall of the blood vessel and the transitional analysis of the damage of the blood wall with time.
(§2) Male Japanese white rabbits (25 months age) were randomly divided into three groups. A normal diet was given to one group (called hereafter "healthy group"). The remaining two groups were fed with 100 g/day of a high α-starch, high salinity and low protein, sclerosis diet containing 0.3% cholesterol (manufactured by Funabashi Farm), simultaneously injected intramuscularly with norepinephrine (3 mg) and bred for 150 days. One group of them was called hereafter "sclerosis group". […] Every 50 days, Aortic Pulse Wave Velocity (PWV) was measured to determine a average hardness of aorta of the rabbits. After five months and just before slaughter of the rabbits, blood was drawn to determine cholesterol in blood (T-Cho), triglyceride (TG), β-lipoprotein (β-Lp), HDL choresterol and a blood glucose level. After slaughter, a fifth intercostal pars in the thoracic aorta was extracted and then subjected to formalin fixation and embedding in paraffin. Subsequently, each component of smooth muscle cell (SMC), elastin (EL), collagen (CL), glycosaminoglycan (GAGs), PAS positive substance (PAS), calcium (Ca) and cholesterol (Cho) was histochemically observed and assayed.

Data set [1] in a line: Serum lipid and blood glucose level in experimental sclerosis rabbits. Type of data set: in vivo, Male Japanese white rabbits. As to conditions: rabbit, oral 3 mg once per day, after five months.
Excerpt: as §1, §2

The subject of data set [2] is experimental sclerosis rabbits. In words: Change of Aortic Pulse Wave Velocity (ΔPWV) in experimental sclerosis rabbits. It counts as in vivo, Male Japanese white rabbits.
Excerpt: as §1, §2
PWV is increasing with the advance of growth, maturation and ageing. Thus an increase in PWV value is an indication of arterial sclerosis (see Arterial Sclerosis, vol. 8, No. 1 April 1980, pp 91-95).

A short description of the next data set: in vivo. To be noted: mouse, in vivo, po, average.
A further data set relates to mice. In words: in vivo. To be noted: oral.
Setting [3] is: rabbit, oral 3 mg once per day, after 150 days.

By LD50 is commonly meant the dose expected to kill half of the subjects tested. Read a low LD50 as greater toxicity.

For `Cl.Cn1cc(OCC(O)CNC(C)(C)C)c2ccccc2c1=O` (racemic) [(±)-4-(3-tert.-butylamino-2-hydroxypropoxy)-2-methyl-1 (2H)-isoquinolinone hydrochloride], in the data set with Wall of Aorta (Table 2, drug administered group), the “Improvement in arterial sclerosis” value is “remarkable improvement in arterial sclerosis”. In addition, in the data set on Wall of Aorta (setting [3]), the “Proportion of PAS positive substance (PAS) in the wall of aorta” value is on record as 27.83 % E, the “Proportion of calcium (Ca) in the wall of aorta” value is on record as 1.92 % E, the “Proportion of cholesterol (Cho) in the wall of aorta” value amounted to 0.68 % E and the “Proportion of collagen (CL) in the wall of aorta” value came out at 30.33 % E. Further, in the data set on Wall of Aorta (setting [3]), the “Proportion of elastin (EL) in the wall of aorta” value was 40.56 % E, the “Proportion of glycosaminoglycan (GAGs) in the wall of aorta” value came out at 16.03 % E and the “Proportion of smooth muscle cell (SMC) in the wall of aorta” value was 46.72 % E. In data set [1], the Blood glucose level was found to be 162.50 mg/dL, the “Cholesterol in blood (T-Cho)” value came out at 25.25 mg/dL, the “HDL cholesterol (HDL-C)” value stood at 15.44 mg/dL and the “Triglyceride (TG)” value turned out to be 65.40 mg/dL. For the same compound, in data set [1], the “β-lipoprotein (β-Lp)” value worked out at 2.75 mg/dL. For the same compound, the “PWV as compared with the sclerosis group” value in data set [2] (150 days, vs sclerosis group) is “significantly improved”. Besides, the “Δ PWV, 0-50 days” value in data set [2] (rabbit, sclerosis diet + norepinephrine i.m., oral capsule 3 mg once per day, 0-50 days) is recorded as -0.110 m/sec. The “Δ PWV, 51-100 days” value in data set [2] (rabbit, sclerosis diet + norepinephrine i.m., oral capsule 3 mg once per day, 51-100 days) is recorded as -0.290 m/sec. The “Δ PWV, 101-150 days” value in data set [2] (rabbit, sclerosis diet + norepinephrine i.m., oral capsule 3 mg once per day, 101-150 days) is listed as -0.890 m/sec. In “in vivo” (female mice), the 50% lethal dose (LD50) is 1290 mg/kg. In the data set “in vivo” (male mice), the LD50 was 1390 mg/kg.
`CC(C)(C)NCC(O)COc1c[nH]c(=O)c2ccccc12` (centres unmarked) [4-(3-tert.-butylamino-2-hydroxypropoxy)-1-isoquinolinonehydrochloride]: the “LD50, range in parentheses” value in the data set on mice (female mice) was in the range of 1063 to 1566 mg/kg; with mice (male mice) it was 1223 to 1587 mg/kg. Besides, the LD50 in the data set “in vivo” (female mice) was determined as 1290 mg/kg; in the data set “in vivo” (male mice), 1390 mg/kg.
